Assay results: patent US5622725A, “Wound disinfection and repair” (Alcide Corporation, priority 1996, dated 1997)

Tested on: Staphylococcus epidermidis biofilms
Experiment: Sterilization of S. epidermidis biofilms, minimal exposure time at 22° C. (supravital dye, confirmed by culture)
Assay type: cell-based
Description: This example compares and contrasts the cidal effectiveness of compositions of the invention with other disinfectants and antibiotics against Staphylococcus epidermidis biofilms, which are frequently observed on the surface of C.A.P.D. peritoneal catheters even in the absence of peritonitis or exit site infections.
A strain of S. epidermidis with characteristic abundant slime production, and derived from a human source, is used to prepare the biofilms. The isolate is fully sensitive in the fluid phase to all commonly used antibiotics as assayed using routine test methods. Aliquots of the bacteria are frozen at -70° C. in 10% glycerol broth or propagated on 5% defibrinated horse blood agar. Standardized biofilms are formed on soda glass microscope slides or slides coated with Silastic® (the basic material of indwelling catheters; see Cecil's, cited above, on page 542), placed in Petri dishes containing 20 ml of tryptone soya broth (Oxoid Ltd., England), seeded with 10^4 cfu S. epidermidis and incubated for 18 hours at 37° C. Reproducible uniform and confluent S. epidermidis biofilms of minimal density are formed.
Antibiotic activity against S. epidermidis biofilms are determined using a supravital dye which acts as an electron acceptor in coupled oxidative systems in biofilm bacteria. The method allows the bacteria to be examined undisturbed within the biofilm matrix in situ. Briefly stated, the biofilms are exposed to antibiotic solutions and incubated at […] for varying periods of time. Positive (viable, 1% peptone water) and negative (sterilized, 4% formol-peptone) controls are included in all experiments. After a designated exposure at 22° C. for varying periods of time between 15 seconds to 6 hours, the biofilms are rinsed twice in sterile water and allowed to drain. They are then placed in a flat agar medium incorporating substantive dyes and incubated at 37° C. for 4 hours, then 24 hours. Viability is assessed visually by a change in dye color and confirmed after 24 hours by mechanically scraping and subsequently culturing the biofilms. Sterilization is indicated by the absence of color changes and confirmed by culture of both intact and mechanically fragmented biofilms. Inhibition of growth is indicated by a lack of color change after a 4-hour incubation and confirmed by a positive color change by 24 hours.

Compound	contact time relative to 50 ppm ClO2 to destroy the organisms in the biofilm (3% concentration, vs 50 ppm ClO2) [times]	Exposure Time (22° C.) for Film Sterilization [min]	Exposure Time (22° C.) for Film Sterilization (100 μg/ml) [min]
OO [Hydrogen Peroxide (3%), Hydrogen Peroxide]	1200	10	
CO[C@H]1/C=C/O[C@@]2(C)Oc3c(C)c(O)c4c(O)c(c(/C=N/N5CCN(C)CC5)c(O)c4c3C2=O)NC(=O)/C(C)=C\C=C\[C@H](C)[C@H](O)[C@@H](C)[C@@H](O)[C@@H](C)[C@H](OC(C)=O)[C@@H]1C [rifampin]			360
